US20240400606A1, “SMALL MOLECULE ACTIVATORS OF THE IMMUNE SYSTEM” (THE BOARD OF TRUSTEES OF THE UNIVERSITY OF ILLINOIS, priority 2021, published 2024)

Target: SULT2B1b (Homo sapiens (Human), UniProt O00204)
Experiment: LC-MS/MS based in vitro assay (DHEA-sulfate formation)
Format: biochemical
Settings: 100 μM compound, 2 hours; mean±s.e.m., n=3
Procedure: LC-MS/MS Based In Vitro Assay. Stock solutions of DHEA (5 mM in DMSO) and compound of interest (5 mM in DMSO) were prepared. […] SULT2B1b was diluted to 1.5 μg/μL in protein storage buffer then down to 0.8 μg/μL in 1× activity assay buffer. 30 μL of 0.8 μg/μL SULT2B1b was added to each reaction. Reactions were incubated for 2 hours at 37° C. with shaking at 250 rpm. To quench, 30 μL reaction mix was added to 30 μL ice cold 0.5% HCl in MeCN, then centrifuged at 13,000 xg at room temperature for 3 min. 50 μL supernatant was transferred to an empty Eppendorf tube and submitted for LC-MS/MS quantification (UIUC Metabolomics Center), along with 5 mM DHEA sulfate standard. Controls: Reaction mix made with DHEA and DMSO in place of compound of interest (DHEA control). […] General LC-MS/MS Quantification Method. Both DHEAS and CS samples were analyzed by 6500 QTRAP (Sciex, Redwood City, CA) liquid chromatography-tandem mass spectrometry. […] The flow rate was 0.3 mL/min. […] The source temperature was 400° C. […] Cholesterol-sulfate and DHEA-sulfate were detected by multiple reaction monitoring (MRM) at m/z 465→97.0 and 367.0→97.0 respectively. Software Analyst 1.7.1 ([…]) was used for data acquisition and analysis.

Sequence of SULT2B1b (O00204 whole entry): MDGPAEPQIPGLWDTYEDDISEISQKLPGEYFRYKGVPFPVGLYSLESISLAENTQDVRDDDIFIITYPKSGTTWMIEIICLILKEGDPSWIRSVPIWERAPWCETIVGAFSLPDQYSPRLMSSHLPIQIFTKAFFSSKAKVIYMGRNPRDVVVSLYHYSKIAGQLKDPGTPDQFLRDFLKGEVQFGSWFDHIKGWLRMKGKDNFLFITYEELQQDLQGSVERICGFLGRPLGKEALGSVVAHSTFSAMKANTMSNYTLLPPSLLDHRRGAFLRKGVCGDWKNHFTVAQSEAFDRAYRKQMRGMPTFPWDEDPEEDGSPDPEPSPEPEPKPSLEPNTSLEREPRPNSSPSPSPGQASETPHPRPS

Row | Compound | inhibition at 100 µM
1 | C[C@]12CCC(=O)N(Cc3ccc(Cl)cc3)C1=CC[C@@H]1[C@@H]2CC[C@]2(C)C(=O)CC[C@@H]12 [Compound 9, (4aR,4bS,6aS,9aS,9bR)-1-(4-chlorobenzyl)-4a,6a-dimethyl-3,4,4a,4b,5,6,6a,8,9,9a,9b,10-dodecahydro-1H-indeno[5,4-f]quinoline-2,7-dione] | 53 ± 1%
2 | C[C@]12CCC(=O)N(Cc3cccc(Cl)c3)C1=CCC1[C@@H]2C(=O)C[C@]2(C)C(=O)CC[C@@H]12 (stereo partly drawn) [Compound 7, (4aR,4bS,6aS,9aS,9bS)-1-(3-chlorobenzyl)-4a,6a-imethy-3,4,4a,6,6a,8,9,9a,9b,10-decahydro-1H-indeno[5,4-f]quinoline-2,5,7(4bH)-trione] | 69.8 ± 0.5%
3 | C[C@]12CCC(=O)N(Cc3ccccc3)C1=CC[C@@H]1[C@@H]2C(=O)C[C@]2(C)C(=O)CC[C@@H]12 [Compound 5, (4aR,4bS,6aS,9aS,9bS)-1-benzyl-4a,6a-dimethyl-3,4,4a,6,6a,8,9,9a,9b,10-decahydro-1H-indeno[5,4-f]quinoline-2,5,7(4bH)-trione] | 48 ± 2%
4 | C[C@]12CCC(=O)N(Cc3ccc(F)cc3)C1=CC[C@@H]1[C@@H]2C(=O)C[C@]2(C)C(=O)CC[C@@H]12 [Compound 4, (4aR,4bS,6aS,9aS,9bS)-1-(4-fluorobenzyl)-4a,6a-dimethyl-3,4,4a,6,6a,8,9,9a,9b,10-decahydro-1H-indeno[5,4-f]quinoline-2,5,7(4bH)-trione] | 55 ± 2%
5 | C[C@]12CCC(=O)N(CC3CC3)C1=CC[C@@H]1[C@@H]2C(=O)C[C@]2(C)C(=O)CC[C@@H]12 [Compound 13, (4aR,4bS,6aS,9aS,9bS)-1-(cyclopropylmethyl)-4a,6a-dimethyl-3,4,4a, 6,6a, 8,9,9a, 9b,10-decahydro-1H-indeno[5,4-f]quinoline-2,5,7(4bH)-trione] | 27 ± 2%
6 | C[C@]12CCC(=O)N(Cc3ccc4ccccc4c3)C1=CC[C@@H]1[C@@H]2C(=O)C[C@]2(C)C(=O)CC[C@@H]12 [Compound 12, (4aR,4bS,6aS,9aS,9bS)-4a,6a-dimethyl-1-(naphthalen-2-ylmethyl)-3,4,4a,6,6a,8,9,9a,9b,10-decahydro-1H-indeno[5,4-f]quinoline-2,5,7(4bH)-trione] | 52 ± 10%
7 | C[C@]12CCC(=O)N(Cc3ccc(Br)nc3)C1=CC[C@@H]1[C@@H]2C(=O)C[C@]2(C)C(=O)CC[C@@H]12 [Compound 11, (4aR,4bS,6aS,9aS,9bS)-1-((6-bromopyridin-3-yl)methyl)-4a,6a-dimethyl-3,4,4a,6,6a,8,9,9a,9b,10-decahydro-1H-indeno[5,4-f]quinoline-2,5,7(4bH)-trione] | 53 ± 1%
8 | C[C@]12CCC(=O)N(CC3CCCCC3)C1=CC[C@@H]1[C@@H]2C(=O)C[C@]2(C)C(=O)CC[C@@H]12 [Compound 14, (4aR,4bS, 6aS, 9aS, 9bS)-1-(cyclohexylmethyl)-4a, 6a-dimethyl-3,4,4a, 6,6a, 8,9,9a, 9b,10-decahydro-1H-indeno[5,4-f]quinoline-2,5,7(4bH)-trione] | 48 ± 2%
9 | CN1C(=O)CC[C@@]2(C)C1=CC[C@@H]1[C@@H]2C(=O)C[C@]2(C)C(=O)CC[C@@H]12 [Compound 6, (4aR,4bS,6aS,9aS,9bS)-1,4a,6a-trimethyl-3,4,4a,6,6a,8,9,9a,9b,10-decahydro-1H-indeno[5,4-f]quinoline-2,5,7(4bH)-trione] | 8.8 ± 0.4%
10 | C[C@]12CCC(=O)N(Cc3ccccc3Cl)C1=CC[C@@H]1[C@@H]2C(=O)C[C@]2(C)C(=O)CC[C@@H]12 [Compound 8, (4aR,4bS,6aS,9aS,9bS)-1-(2-chlorobenzyl)-4a,6a-dimethyl-3,4,4a,6,6a,8,9,9a,9b,10-decahydro-1H-indeno[5,4-f]quinoline-2,5,7(4bH)-trione] | 46 ± 1%
11 | C[C@]12CCC(=O)N(Cc3ccc(Cl)cc3)C1=CC[C@@H]1[C@@H]2C(=O)C[C@@]2(C)[C@H]1CCC21OCCO1 [Compound 10, (4aR,4bS,6aS,9aS,9bS)-1-(4-chlorobenzyl)-4a,6a-dimethyl-1,3,4,4a,4b,6,6a,8,9,9a,9b,10-dodecahydrospiro[indeno[5,4-f]quinoline-7,2′-[1,3]dioxolane]-2,5-dione] | 45 ± 1%

System: whole cell CS levels in MCF-7
Experiment: Whole cell cholesterol sulfate quantification, MCF-7
Format: cell-based, human
Settings: MCF-7, 6.25 μM compound, 72 hours
Procedure: (§1) General Whole Cell Cholesterol Sulfate Quantification. 60×15 mm tissue culture dishes were seeded with MCF-7 at 2×10^6 cells/dish or T47D at 1×10^6 cells per dish, 5 mL total media volume, and allowed to adhere overnight. Compounds of interest were dissolved in DMSO. Cells were treated with 25 μL 1.25 mM compound of interest stock (6.25 μM final compound concentration, 0.5% final DMSO concentration) or DMSO for 72 hours. To harvest, media was aspirated, and cells were washed once with PBS before detaching with trypsin. Trypsin was quenched with media. Cells were centrifuged at 300 xg for 3 minutes and supernatant was discarded. Cells were resuspended in media and counted using a Countess 3 automated cell counter (Thermo Fisher Scientific). 1.5×10^6 cells were collected, washed twice with 1 mL PBS, then pelleted and stored at −80° C. until lysis. Cell pellets were resuspended in 200 μL cold 70:30 methanol:water and placed on ice. Cell suspension was sonicated on ice (30%, 10 s on, 20 s off, 1 min total) and continued to be incubated on ice for 30 minutes. Lysate was clarified by centrifugation at 14,100 xg at 4° C. for 30 minutes. 100 μL of supernatant was transferred to an empty Eppendorf tube and submitted for LC-MS/MS quantification (UIUC Metabolomics Center), along with 5 mM cholesterol sulfate sodium salt standard.
as §1, with “Time Course Whole Cell” for “General Whole Cell”, “2×10^6 cells/dish per dish,” for “2×10^6 cells/dish or T47D at 1×10^6 cells per dish,”, “DMSO for 0 (harvested immediately), 4, 8, 24, 48, or 72 hours.” for “DMSO for 72 hours.”
Whole Cell Cholesterol Sulfate Quantification with Compound Removal. 60×15 mm tissue culture dishes were seeded with MCF-7 at 2×10^6 cells/dish, 5 mL total media volume, and allowed to adhere overnight. Compounds of interest were dissolved in DMSO. Cells were treated with 25 μL 1.25 mM compound of interest stock (6.25 μM final compound concentration, 0.5% final DMSO concentration) for 0 hours (harvested immediately) or 24 hours. Media was aspirated and replaced with 5 mL fresh media, then cells were either harvested (24 hour time point) or further incubated. To harvest, media was aspirated, and cells were washed once with PBS before detaching with trypsin. Trypsin was quenched with media. Cells were centrifuged at 300 xg for 3 minutes and supernatant was discarded. Cells were resuspended in media and counted using a Countess 3 automated cell counter (Thermo Fisher Scientific). 1.5×10^6 cells were collected, washed twice with 1 mL PBS, then pelleted and stored at −80° C. until lysis. Cell pellets were resuspended in 200 μL cold 70:30 methanol:water and placed on ice. Cell suspension was sonicated on ice (30%, 10 s on, 20 s off, 1 min total) and continued to be incubated on ice for 30 minutes. Lysate was clarified by centrifugation at 14,100 xg at 4° C. for 30 minutes. […]

Row | Compound | whole cell CS levels vs DMSO
12 | CN1C(=O)CC[C@@]2(C)C1=CC[C@@H]1[C@@H]2C(=O)C[C@]2(C)C(=O)CC[C@@H]12 [Compound 6, (4aR,4bS,6aS,9aS,9bS)-1,4a,6a-trimethyl-3,4,4a,6,6a,8,9,9a,9b,10-decahydro-1H-indeno[5,4-f]quinoline-2,5,7(4bH)-trione] | not seen

Same assay, conditions: MCF-7, sub-lethal 0.156 μM, 72 hours

Row | Compound | whole cell CS levels vs DMSO
13 | O=CC1(C2(C=O)c3ccccc3-c3ccccc32)c2ccccc2-c2ccccc21 [Raptinal, reference compound] | no significant difference

System: free cholesterol levels in MCF-7
Experiment: Whole cell cholesterol assay
Format: cell-based, human
Settings: MCF-7, 6.25 μM, 72 hours
Procedure: Whole Cell Cholesterol Assay. Assay was run according to manufacturer's instructions. Briefly, 5000 MCF-7 cells were plated in 99 μL media in a 96-well plate and allowed to adhere overnight before DMSO solutions of compounds were added to each well. Final concentration of DMSO in each well is 1%, final volume: 100 μL. At the end of 72 hours, media was aspirated, and cells were washed twice with 100 μL PBS. 50 μL of cholesterol lysis solution was added and cells were incubated for 30 minutes at 37° C. 50 μL of sample was then transferred to a 96-well white walled assay plate. 50 μL of cholesterol detection reagent was added to all wells and incubated at room temperature for 1 hour. Luminescence was read using a SpectraMax M3 plate reader (Molecular Devices). Cholesterol levels were determined by use of a cholesterol standard curve.

Row | Compound | free cholesterol levels vs DMSO
14 | CN1C(=O)CC[C@@]2(C)C1=CC[C@@H]1[C@@H]2C(=O)C[C@]2(C)C(=O)CC[C@@H]12 [Compound 6, (4aR,4bS,6aS,9aS,9bS)-1,4a,6a-trimethyl-3,4,4a,6,6a,8,9,9a,9b,10-decahydro-1H-indeno[5,4-f]quinoline-2,5,7(4bH)-trione] | no statistical difference
